Measurements reported in PMC8509676, “Residual Helicity at the Active Site of the Histidine Phosphocarrier, HPr, Modulates Binding Affinity to Its Natural Partners” (International Journal of Molecular Sciences, 2021).

Key:
EIN^sc = EIN^sc (Streptomyces coelicolor, UniProt Q9KZP1); experiment: biochemical; format: binding
Experimental: (§1) Spectra were collected at 25 °C on a Cary spectrofluorometer (Agilent, Madrid, Spain), with a Peltier temperature controller. The samples were prepared the day before and left overnight at 5 °C. Before measurements, the samples were incubated for 1 h at 25 °C. A quartz cell with a 1 cm path length (Hellma, Kruibeke, Belgium) was used. In all the experiments, the slit widths were equal to 5 nm for both the excitation and emission lights. Protein samples were excited at either 280 or 295 nm. The experiments were performed between 300 and 400 nm. The signal was acquired for 1 s, and the increment of wavelength was set to 1 nm. Appropriate blank corrections were made in all spectra. For the binding experiments, 3 µM of either protein (Rsd^ec or EIN^sc) and 15 µM of the corresponding peptide were mixed. The experiments in aqueous solution were acquired in Tris buffer (50 mM, pH 7.0).
(§2) For the titration between either of the two proteins (Rsd^ec or EIN^sc) and the corresponding peptide, increasing amounts of the latter, in a concentration range of 0 to 30 µM, were added to a solution with a fixed concentration of each protein (3 µM). The experimental set-up was identical to that described above, including preparation of the samples the day before and their storage overnight at 5 °C. Before measurements, the samples were incubated for 1 h at 25 °C. The fluorescence of a blank solution containing only the corresponding peptide was subtracted for each data point. […] The Kd was determined by following the fluorescence at selected wavelengths and fitting experimental data to Equation (1). […] At all used concentrations, the fluorescence was corrected by the inner-filter effects.

Rsd^ec = target: T1, Rsd^ec (Escherichia coli, UniProt P0AFX4); experiment: Fluorescence titration, peptide/Rsd^ec binding
T1 construct: His-tag; made in house; host or cells: E. coli C41
T1 sequence (P0AFX4 whole entry): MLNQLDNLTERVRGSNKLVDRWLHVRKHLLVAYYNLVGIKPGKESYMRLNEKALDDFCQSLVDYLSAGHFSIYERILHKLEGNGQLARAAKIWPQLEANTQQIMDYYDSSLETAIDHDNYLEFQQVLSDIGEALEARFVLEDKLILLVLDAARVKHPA
Experimental: as §1, §2

[1] = Far-UV CD, helicity from molar ellipticity at 222 nm; format: physicochemical; conditions: 5 °C
Experimental: Spectra were collected on a Jasco J810 spectropolarimeter (Jasco, Tokyo, Japan) interfaced with a Peltier unit. Far-UV measurements were performed with samples placed in quartz cells with a 0.1 cm path length (Hellma, Kruibeke, Belgium), with a response time of 2 s, a band width of 1 nm, and a scan velocity of 50 nm/min. For all peptides, a wide range of concentrations (10–50 µM) was used to determine whether either the shape or the intensity of the spectra was concentration-dependent. None of those features changed in the concentration range explored. The experiments in aqueous solution were acquired at 5 °C in Tris buffer (50 mM, pH 7.0). Raw ellipticity was converted to molar ellipticity, [Θ], from which the fraction of helical populations was determined as previously described. For the experiments in the presence of each protein (repeated three times), the same concentration used in the fluorescence experiments was used, and the experimental set-up was the same as described above for the isolated peptides.

Sequence of EIN^sc (Q9KZP1 1-230): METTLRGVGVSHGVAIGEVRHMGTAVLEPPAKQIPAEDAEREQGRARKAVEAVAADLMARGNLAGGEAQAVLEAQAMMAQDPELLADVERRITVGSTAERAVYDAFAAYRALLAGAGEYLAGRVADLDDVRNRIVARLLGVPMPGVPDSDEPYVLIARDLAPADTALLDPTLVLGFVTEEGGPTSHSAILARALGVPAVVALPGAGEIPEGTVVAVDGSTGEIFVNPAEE

Ac-GWAEGLHARPASIFVRAATATG-NH2 [Wild-type]
Kd (EIN^sc): 10 µM
Kd (Rsd^ec): 5 µM
[Θ]^222 (value in parentheses) ([1]; 50 mM Tris pH 7.0): −612.44 deg cm^2 dmol^−1
Helicity (%) ([1]; 50 mM Tris pH 7.0, from [Θ]^222 assuming −39,500 deg cm^2 dmol^−1 for a fully formed α-helix): 1.6%
